Values joined by “and” are separate entries in the source; they are usually repeats but may differ in a detail not shown here. Equal values may be shown once. Read-outs that look alike come from different tables or passages of the source.
How the values were obtained:
5α-reductase [1] = molecular target: T1, 5α-reductase (Homo sapiens, UniProt P18405); assay: Enzymatic 5α-reductase inhibition assay (conversion of testosterone to DHT, LC-MS), crude enzyme from LNCaP cells; format: biochemical; design: adding 80 µL of homogenized crude enzyme (equivalent to 75 µg protein); host or cells: LNCaP cells, sonicated homogenate used as crude enzyme; details: for IC50: isolated compounds, LNCaP cell crude enzyme, mean ± SD of triplicate, read-out: IC50 against 5α-reductase (converted); for 5α-reductase inhibitory activity (in words): qualitative statement
T1 sequence (P18405 1-259): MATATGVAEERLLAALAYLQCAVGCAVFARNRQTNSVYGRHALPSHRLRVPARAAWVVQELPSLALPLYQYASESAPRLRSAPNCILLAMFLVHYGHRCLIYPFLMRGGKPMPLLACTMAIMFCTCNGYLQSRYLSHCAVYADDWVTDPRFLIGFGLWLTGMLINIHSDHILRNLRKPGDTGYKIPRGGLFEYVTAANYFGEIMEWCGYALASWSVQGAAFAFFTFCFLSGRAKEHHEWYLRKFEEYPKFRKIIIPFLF
Experimental: The steroid 5α-reductase inhibitory activity of samples on the conversion of testosterone to DHT was determined using LNCaP cell as a source of enzyme.
5α-reductase was prepared as a crude enzyme from the androgen-dependent LNCaP cells (ATCC® CRL-1740^TM) using the procedure as described by Fachrunniza et al., which was modified from Srivilai et al.. Briefly, the LNCaP cells were cultured in a 175 cm^2 culture flask at 37 °C under a 5% CO2 humidified atmosphere and cultured until reaching approximately 80% confluency. The medium was removed and the cells were rinsed with tris-HCl buffer solution, pH 7.4 (containing 10 mM Tris-HCl buffer; 50 mM KCl; 1 mM EDTA; 0.5 mM phenylmethanesulfonyl fluoride). The cells were then scraped off and centrifuged at 1900× g for 10 min. The cell pellets were collected and re-suspended in tris-HCl buffer solution pH 7.4 to a concentration of ≥9 × 10^7 cells/mL and the resultant cell pellets were kept in an ice bath and homogenized using a sonication probe. The total protein content in the homogenized crude enzyme was not less than 75 µg protein equivalent in this 5α-reductase inhibitory assay, which was measured using the Pierce bicinchoninic acid (BCA) protein assay (Pierce, Rockford, IL, USA).
The in vitro inhibitory activity of the samples against the conversion of testosterone to DHT by 5α-reductase was carried out according to the method described by Srivilai et al.. The DHT formation after the enzymatic reaction was determined using liquid chromatography mass spectrometry (LC-MS) to measure 5α-reductase activity. […] In the assay, the reaction was performed in U-shaped 96-deep-well plates covered by well-cap mats to create a solution that contained 10 µL of the tested sample dissolved in dimethyl sulfoxide (DMSO), 20 µL of testosterone (34.7 µM in propylene glycol and water), and 50 µL of β-nicotinamide adenine dinucleotide phosphate (NADPH, 1 mM in tris-HCl buffer pH 7.4). The enzymatic reaction was started by adding 80 µL of homogenized crude enzyme (equivalent to 75 µg protein), and the final volume was adjusted to 200 µL by adding 40 µL of tris-HCl buffer pH 7.4. The reaction was maintained in a water bath with a shaker at 37 °C for 60 min and then the reaction was stopped by adding 300 µL of hydroxylamine hydrochloride (HM) (10 mg/mL in 80% v/v ethanol). The solution was then incubated for another 60 min at 60 °C to completely derivatize all the DHT that was produced. After incubation, the solution was centrifuged at 1700× g for 10 min and the supernatant was collected for quantitated DHT production by LC-MS. Two control groups, C0 and C60, were prepared with all the solutions, including 10 µL of DMSO, but no test sample. Control group C0 was stopped (by adding HM) before the enzymatic incubation at 0 min, while the control group C60 continued with the enzymatic reaction and was stopped after 60 min of incubation. The DHT production was determined using LC-MS. The inhibition of tested sample was determined by measuring the area under the curve (AUC) of extracted ion chromatogram (EIC) of derivatized-DHT (m/z [M + H]^+, 306.2428) which was used to calculate the enzymatic reaction inhibition by the following Equation (1):(1) 5α-reductase inhibitory activity (%)= [1 −AUC of sample−AUC of C0/AUC of C60 −AUC of C0] ×100

5α-reductase [2] = molecular target: T1, 5α-reductase; details: read-out: IC50 against 5α-reductase; positive controls; same assay system; cited from earlier work

| IC50 (5α-reductase [1]) [µM] | 5α-reductase inhibitory activity (in words) (5α-reductase [1]) | Compound | IC50 (5α-reductase [2]) |
| --- | --- | --- | --- |
| 14.2 | potent 5α-reductase inhibitory activity | CC1=C(CC/C(C)=C/C(=O)O)[C@@]2(C)CCCC(C)(C)[C@@H]2CC1 [Compound 1, (+)-eperua-8,13-dien-15-oic acid] | – |
| – | – | CC(C)(C)NC(=O)[C@H]1CC[C@H]2[C@@H]3CC[C@H]4NC(=O)C=C[C@]4(C)[C@H]3CC[C@]12C [Finasteride] | 752 nM and 730 nM |
| > 400 | weak inhibitory activity | C=C(C)[C@@H]1CC[C@]2(C)CC[C@]3(C)[C@H](CC[C@@H]4[C@@]5(C)CC[C@H](O)C(C)(C)[C@@H]5CC[C@]43C)[C@@H]12 [Compound 3, lupeol] | – |
| 14.6 | potent 5α-reductase inhibitory activity | CC1=CC[C@H]2C(C)(C)CCC[C@]2(C)[C@H]1CC/C(C)=C/C(=O)O [Compound 2, (+)-eperua-7,13-dien-15-oic acid] | – |
